Reference: patent US9550772B2, “Azaindole derivatives as multi kinase inhibitors” (ORIBASE PHARMA, priority 2012, dated 2017)
Where two headings read alike, the source gives them in different places.

Legend:
[1] = target: T1, KDR (VEGFR2) (Homo sapiens, UniProt P35968); experiment: In vitro kinase assay (Z'-LYTE, Invitrogen); format: biochemical; settings: compound at 100 nM, ATP Km apparent, read-out: % of inhibition of the kinase compared to the control
T1 construct: purchased Invitrogen
Method in brief: (§1)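 FRET-based Z′-LYTE assay reads donor/acceptor emission ratio (excitation 400 nm) from protease cleavage of non-phosphorylated dual-labelled peptide. Kinase buffer 50 mM HEPES pH 7.5, 0.01% BRIJ-35, 10 mM MgCl2, 1 mM EGTA; ATP at previously determined apparent Km; 1% DMSO final. Compounds tested at 100 nM; percent inhibition reported.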

[2] = target: T2, EGFR (ErbB1) T790M L858R (Homo sapiens, UniProt P00533, L858R/T790M); experiment: In vitro kinase assay (Z'-LYTE, Invitrogen); format: biochemical; settings: compound at 100 nM, ATP Km apparent, read-out: % of inhibition of the kinase compared to the control
T2 construct: purchased Invitrogen
T2 sequence (P00533 25-1210 T790M/L858R): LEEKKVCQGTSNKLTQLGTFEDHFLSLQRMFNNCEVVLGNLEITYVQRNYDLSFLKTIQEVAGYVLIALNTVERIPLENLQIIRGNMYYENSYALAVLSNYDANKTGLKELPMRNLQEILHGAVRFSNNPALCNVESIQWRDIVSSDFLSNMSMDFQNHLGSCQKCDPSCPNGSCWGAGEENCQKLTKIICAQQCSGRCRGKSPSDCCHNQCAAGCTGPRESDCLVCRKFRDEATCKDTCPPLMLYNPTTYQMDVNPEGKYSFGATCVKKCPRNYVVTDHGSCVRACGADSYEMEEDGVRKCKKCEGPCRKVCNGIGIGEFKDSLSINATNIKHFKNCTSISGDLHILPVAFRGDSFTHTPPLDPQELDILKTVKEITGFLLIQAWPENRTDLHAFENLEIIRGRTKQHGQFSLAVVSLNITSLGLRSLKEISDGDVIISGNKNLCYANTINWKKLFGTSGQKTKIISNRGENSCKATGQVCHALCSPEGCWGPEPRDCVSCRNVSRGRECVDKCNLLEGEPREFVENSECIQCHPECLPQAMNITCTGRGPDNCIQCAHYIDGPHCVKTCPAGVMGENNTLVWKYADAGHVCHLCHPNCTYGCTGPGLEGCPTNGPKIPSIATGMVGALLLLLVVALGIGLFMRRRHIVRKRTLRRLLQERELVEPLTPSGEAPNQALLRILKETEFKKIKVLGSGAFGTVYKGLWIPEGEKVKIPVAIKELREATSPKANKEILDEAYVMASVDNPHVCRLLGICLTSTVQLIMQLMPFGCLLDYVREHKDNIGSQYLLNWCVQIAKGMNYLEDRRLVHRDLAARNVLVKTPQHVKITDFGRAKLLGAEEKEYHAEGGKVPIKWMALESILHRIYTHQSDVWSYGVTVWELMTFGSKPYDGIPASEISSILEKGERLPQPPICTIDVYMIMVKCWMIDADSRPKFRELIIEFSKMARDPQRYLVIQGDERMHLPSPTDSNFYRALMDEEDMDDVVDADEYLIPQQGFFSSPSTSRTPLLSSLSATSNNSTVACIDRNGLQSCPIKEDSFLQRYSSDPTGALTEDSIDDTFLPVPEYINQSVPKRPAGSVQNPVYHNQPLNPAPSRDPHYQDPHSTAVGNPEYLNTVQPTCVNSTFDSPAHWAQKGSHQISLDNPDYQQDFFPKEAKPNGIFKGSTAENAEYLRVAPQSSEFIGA
Method in brief: as §1

[3] = target: T3, BRAF (Homo sapiens, UniProt P15056); experiment: In vitro kinase assay (Z'-LYTE, Invitrogen); format: biochemical; settings: compound at 100 nM, ATP Km apparent, read-out: % of inhibition of the kinase compared to the control
T3 construct: purchased Invitrogen
T3 sequence (P15056 whole entry): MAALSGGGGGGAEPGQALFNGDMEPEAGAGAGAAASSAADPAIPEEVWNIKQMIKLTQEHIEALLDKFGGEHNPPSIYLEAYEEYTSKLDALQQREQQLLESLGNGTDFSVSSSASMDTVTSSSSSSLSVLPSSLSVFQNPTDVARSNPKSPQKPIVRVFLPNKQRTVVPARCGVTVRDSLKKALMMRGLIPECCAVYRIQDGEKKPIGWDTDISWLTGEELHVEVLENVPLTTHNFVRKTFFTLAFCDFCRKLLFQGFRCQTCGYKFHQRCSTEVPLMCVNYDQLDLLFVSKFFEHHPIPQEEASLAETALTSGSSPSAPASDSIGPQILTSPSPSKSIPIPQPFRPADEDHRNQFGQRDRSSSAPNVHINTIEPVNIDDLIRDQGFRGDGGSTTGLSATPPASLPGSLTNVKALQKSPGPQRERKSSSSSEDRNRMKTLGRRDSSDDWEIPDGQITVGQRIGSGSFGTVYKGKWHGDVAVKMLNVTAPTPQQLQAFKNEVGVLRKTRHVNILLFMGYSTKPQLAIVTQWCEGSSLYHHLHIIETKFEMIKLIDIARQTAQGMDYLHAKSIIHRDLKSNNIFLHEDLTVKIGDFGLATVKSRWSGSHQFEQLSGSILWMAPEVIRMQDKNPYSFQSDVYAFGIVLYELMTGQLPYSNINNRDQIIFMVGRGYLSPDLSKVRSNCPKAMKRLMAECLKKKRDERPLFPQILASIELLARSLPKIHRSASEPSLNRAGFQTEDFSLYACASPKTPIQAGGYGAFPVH
Method in brief: as §1

[4] = target: T4, PDGFRA (PDGFR alpha) (Homo sapiens, UniProt P16234); experiment: In vitro kinase assay (Z'-LYTE, Invitrogen); format: biochemical; settings: compound at 100 nM, ATP Km apparent, read-out: % of inhibition of the kinase compared to the control
T4 construct: purchased Invitrogen
Method in brief: as §1

[5] = target: T5, SRC (Homo sapiens, UniProt P12931); experiment: In vitro kinase assay (Z'-LYTE, Invitrogen); format: biochemical; settings: compound at 100 nM, ATP Km apparent, read-out: % of inhibition of the kinase compared to the control
T5 construct: purchased Invitrogen
T5 sequence (P12931 whole entry): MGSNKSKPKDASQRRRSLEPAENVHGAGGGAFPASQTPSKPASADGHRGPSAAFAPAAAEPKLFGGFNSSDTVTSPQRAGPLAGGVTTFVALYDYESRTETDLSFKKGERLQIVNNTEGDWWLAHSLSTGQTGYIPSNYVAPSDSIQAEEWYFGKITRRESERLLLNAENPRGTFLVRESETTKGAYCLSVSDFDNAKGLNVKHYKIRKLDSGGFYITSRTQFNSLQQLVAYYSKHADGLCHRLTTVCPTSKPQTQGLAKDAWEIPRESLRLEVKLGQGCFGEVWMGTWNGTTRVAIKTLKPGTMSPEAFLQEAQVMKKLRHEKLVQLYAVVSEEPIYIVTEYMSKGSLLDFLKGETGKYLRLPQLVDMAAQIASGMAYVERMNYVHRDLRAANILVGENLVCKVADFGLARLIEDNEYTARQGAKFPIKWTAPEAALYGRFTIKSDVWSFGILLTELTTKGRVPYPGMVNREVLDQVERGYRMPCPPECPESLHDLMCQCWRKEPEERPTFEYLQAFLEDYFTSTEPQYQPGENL
Method in brief: as §1

[6] = target: T6, FGFR2 (Homo sapiens, UniProt P21802); experiment: In vitro kinase assay (Z'-LYTE, Invitrogen); format: biochemical; settings: compound at 100 nM, ATP Km apparent, read-out: % of inhibition of the kinase compared to the control
T6 construct: purchased Invitrogen
T6 sequence (P21802 22-821): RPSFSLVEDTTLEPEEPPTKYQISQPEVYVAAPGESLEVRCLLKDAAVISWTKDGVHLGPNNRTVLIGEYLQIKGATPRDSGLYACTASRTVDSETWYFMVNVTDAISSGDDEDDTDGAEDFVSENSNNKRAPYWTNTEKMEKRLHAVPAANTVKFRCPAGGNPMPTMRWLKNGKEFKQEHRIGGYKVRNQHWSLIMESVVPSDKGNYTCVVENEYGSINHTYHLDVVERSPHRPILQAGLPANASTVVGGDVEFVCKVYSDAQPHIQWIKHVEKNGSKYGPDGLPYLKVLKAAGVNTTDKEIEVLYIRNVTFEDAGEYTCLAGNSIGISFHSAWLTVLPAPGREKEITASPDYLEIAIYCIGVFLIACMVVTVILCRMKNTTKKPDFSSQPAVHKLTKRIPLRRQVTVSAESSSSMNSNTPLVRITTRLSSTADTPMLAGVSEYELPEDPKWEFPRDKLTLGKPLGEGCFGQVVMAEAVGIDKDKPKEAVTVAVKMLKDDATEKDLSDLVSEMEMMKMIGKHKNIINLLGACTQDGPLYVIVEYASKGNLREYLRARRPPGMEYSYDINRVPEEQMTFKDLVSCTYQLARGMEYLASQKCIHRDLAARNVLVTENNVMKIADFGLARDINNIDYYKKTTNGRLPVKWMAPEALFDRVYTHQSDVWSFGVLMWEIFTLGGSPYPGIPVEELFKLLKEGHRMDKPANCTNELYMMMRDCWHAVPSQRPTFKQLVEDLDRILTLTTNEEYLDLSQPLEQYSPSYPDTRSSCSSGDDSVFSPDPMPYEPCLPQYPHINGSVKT
Method in brief: as §1

[7] = target: T7, EGFR (ErbB1) (Homo sapiens, UniProt P00533); experiment: In vitro kinase assay (Z'-LYTE, Invitrogen); format: biochemical; settings: compound at 100 nM, ATP Km apparent, read-out: % of inhibition of the kinase compared to the control
T7 construct: purchased Invitrogen
T7 sequence (P00533 25-1210): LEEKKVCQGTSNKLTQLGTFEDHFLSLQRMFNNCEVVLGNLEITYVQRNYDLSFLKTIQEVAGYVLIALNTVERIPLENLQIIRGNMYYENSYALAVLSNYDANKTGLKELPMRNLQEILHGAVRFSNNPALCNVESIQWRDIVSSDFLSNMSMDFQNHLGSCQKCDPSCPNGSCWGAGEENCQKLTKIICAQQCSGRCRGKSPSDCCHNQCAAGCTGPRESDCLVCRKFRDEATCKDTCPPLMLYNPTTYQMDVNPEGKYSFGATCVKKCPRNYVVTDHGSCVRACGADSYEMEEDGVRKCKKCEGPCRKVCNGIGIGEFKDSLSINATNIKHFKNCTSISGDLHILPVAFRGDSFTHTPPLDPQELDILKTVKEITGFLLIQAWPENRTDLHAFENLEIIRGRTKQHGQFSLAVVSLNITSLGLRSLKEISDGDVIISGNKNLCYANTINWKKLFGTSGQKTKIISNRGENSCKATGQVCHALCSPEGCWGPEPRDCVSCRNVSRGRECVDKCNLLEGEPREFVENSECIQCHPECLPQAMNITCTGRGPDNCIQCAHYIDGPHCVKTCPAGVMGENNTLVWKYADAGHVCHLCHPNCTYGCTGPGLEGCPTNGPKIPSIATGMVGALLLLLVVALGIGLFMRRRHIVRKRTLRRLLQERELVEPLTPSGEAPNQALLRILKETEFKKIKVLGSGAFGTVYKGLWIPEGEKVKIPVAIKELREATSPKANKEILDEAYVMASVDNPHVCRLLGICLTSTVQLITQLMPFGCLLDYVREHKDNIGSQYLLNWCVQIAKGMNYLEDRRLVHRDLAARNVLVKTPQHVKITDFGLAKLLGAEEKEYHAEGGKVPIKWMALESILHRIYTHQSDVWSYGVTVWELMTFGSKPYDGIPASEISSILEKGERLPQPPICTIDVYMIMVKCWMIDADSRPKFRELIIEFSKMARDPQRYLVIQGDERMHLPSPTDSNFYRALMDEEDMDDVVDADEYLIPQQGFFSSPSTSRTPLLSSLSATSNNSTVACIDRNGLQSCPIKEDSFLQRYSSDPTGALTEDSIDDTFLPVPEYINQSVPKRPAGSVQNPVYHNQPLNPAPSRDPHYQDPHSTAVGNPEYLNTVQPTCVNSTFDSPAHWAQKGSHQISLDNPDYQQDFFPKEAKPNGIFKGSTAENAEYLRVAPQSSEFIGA
Method in brief: as §1

[8] = system: A549 cell line; experiment: In vitro cell proliferation assay (MTT); format: cell-based; settings: Homo sapiens, A549, 72 h, EC50 ≧ 1 μM, read-out: EC50, anti-proliferative activity
Method in brief: (§2)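 Cells (5×10^3 per well for cancer lines, 1×10^4 for HRMEC) incubated in duplicate with 10 nM to 3 μM compound for 72 hr. Proliferation read by MTT; EC50 from sigmoidal fits normalised to DMSO (0%) and 1% SDS (100%) controls.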

[9] = system: HT29 cell line; experiment: In vitro cell proliferation assay (MTT); format: cell-based; settings: Homo sapiens, HT-29, HT29, 72 hr, read-out: EC50, anti-proliferative activity
Method in brief: as §2

[10] = system: HuCCT1 cell line; experiment: In vitro cell proliferation assay (MTT); format: cell-based; settings: Homo sapiens, HuCCT-1, HuCCT1, 72 hr, read-out: EC50, anti-proliferative activity
Method in brief: as §2

[11] = system: HUVEC cells; experiment: In vitro cell proliferation assay (MTT); format: cell-based; settings: Homo sapiens, 72 hr, read-out: EC50, anti-proliferative activity
Method in brief: as §2

[12] = system: HepG2 cell line; experiment: In vitro cell proliferation assay (MTT); format: cell-based; settings: Homo sapiens, HepG2, 72 hr, read-out: EC50, anti-proliferative activity
Method in brief: as §2

[13] = system: H1975 cell line; experiment: In vitro cell proliferation assay (MTT); format: cell-based; settings: Homo sapiens, NCI-H1975, H1975, 72 hr, read-out: EC50, anti-proliferative activity
Method in brief: as §2

[14] = system: HuH7 cell line; experiment: In vitro cell proliferation assay (MTT); format: cell-based; settings: Homo sapiens, Huh-7, HuH7, 72 hr, read-out: EC50, anti-proliferative activity
Method in brief: as §2

[15] = system: HuH6 Clone 5 cell line; experiment: In vitro cell proliferation assay (MTT); format: cell-based; settings: HUH-6-clone5, HuH6 Clone 5, 72 hr, read-out: EC50, anti-proliferative activity
Method in brief: as §2

[16] = system: MDA-MB-231 cell line; experiment: In vitro cell proliferation assay (MTT); format: cell-based; settings: Homo sapiens, MDA-MB-231, 72 hr, EC50 ≧ 1 μM, read-out: EC50, anti-proliferative activity
Method in brief: as §2

SMILES | inhibition at 0.1 µM [1] | inhibition at 0.1 µM [2] | inhibition at 0.1 µM [3] | inhibition at 0.1 µM [4] | inhibition at 0.1 µM [5] | inhibition at 0.1 µM [6] | inhibition at 0.1 µM [7] | EC50 [8] | EC50 ([9]; EC50 ≧ 1 μM) | EC50 ([12]; EC50 ≧ 1 μM) | EC50 ([13]; EC50 ≧ 1 μM) | EC50 ([14]; 100 nM < EC50 < 1 μM) | EC50 ([15]; EC50 ≧ 1 μM) | EC50 ([10]; EC50 ≧ 1 μM) | EC50 ([11]; EC50 ≧ 1 μM) | EC50 ([11]; 100 nM < EC50 < 1 μM) | other results
COC(=O)c1cc2cc(CNc3cc(NC(=O)c4ccc(C)cc4)ccc3C)cnc2[nH]1 [OR0738, 5-{[2-Methyl-5-(4-methyl-benzoylamino)-phenylamino]-methyl}-1H-pyrrolo[2,3-b]pyridine-2-carboxylic acid methyl ester] | < 50% | < 50% | < 50% | < 50% | < 50% | < 50% | < 50% | ≥ 1 µM | ≥ 1 µM | ≥ 1 µM | ≥ 1 µM |  |  | ≥ 1 µM | ≥ 1 µM |  | 
COC(=O)c1cc2cc(COc3cc(NC(=O)c4ccc(CN5CCN(C)CC5)c(C(F)(F)F)c4)ccc3C)cnc2[nH]1 [OR0749, 5-{2-Methyl-5-[4-(4-methyl-piperazin-1-ylmethyl)-3-trifluoromethyl-benzoylamino]-phenoxymethyl}-1H-pyrrolo[2,3-b]pyridine-2-carboxylic acid methyl ester] | ≥ 50% | < 50% | < 50% | ≥ 50% | ≥ 50% | ≥ 50% | ≥ 50% | ≥ 1 µM |  | ≥ 1 µM | ≥ 1 µM | 0.1 to 1 µM | ≥ 1 µM | ≥ 1 µM |  | 0.1 to 1 µM | EC50 ([9]; 100 nM < EC50 < 1 μM): 0.1 to 1 µM
COC(=O)c1cc2cc(CCc3cc(NC(=O)c4ccc(CN5CCC(N(C)C)C5)c(C(F)(F)F)c4)ccc3C)cnc2[nH]1 (stereo not shown) [OR0775, 5-(2-{5-[4-(3-Dimethylamino-pyrrolidin-1-ylmethyl)-3-trifluoromethyl-benzoylamino]-2-methyl-phenyl}-ethyl)-1H-pyrrolo[2,3-b]pyridine-2-carboxylic acid methyl ester] | ≥ 50% | ≥ 50% | ≥ 50% | ≥ 50% | ≥ 50% | ≥ 50% | ≥ 50% |  |  | ≥ 1 µM |  | 0.1 to 1 µM | ≥ 1 µM | ≥ 1 µM |  | 0.1 to 1 µM | 
COC(=O)c1cc2cc(CNc3cc(NC(=O)c4ccc(CN5CCN(C)CC5)c(C(F)(F)F)c4)ccc3C)cnc2[nH]1 [OR0747, 5-({2-Methyl-5-[4-(4-methyl-piperazin-1-ylmethyl)-3-trifluoromethyl-benzoylamino]-phenylamino}-methyl)-1H-pyrrolo[2,3-b]pyridine-2-carboxylic acid methyl ester] | ≥ 50% | < 50% | < 50% | ≥ 50% | ≥ 50% | ≥ 50% | ≥ 50% | ≥ 1 µM | ≥ 1 µM | ≥ 1 µM | ≥ 1 µM |  |  | ≥ 1 µM |  | 0.1 to 1 µM | 
COC(=O)c1cc2cc(COc3cc(NC(=O)c4ccc(CN5CCC(N(C)C)C5)c(C(F)(F)F)c4)ccc3C)cnc2[nH]1 (stereo not shown) [OR0750, 5-{5-[4-(3-Dimethylamino-pyrrolidin-1-ylmethyl)-3-trifluoromethyl-benzoylamino]-2-methyl-phenoxymethyl}-1H-pyrrolo[2,3-b]pyridine-2-carboxylic acid methyl ester] | ≥ 50% | < 50% | < 50% | ≥ 50% | ≥ 50% | ≥ 50% | ≥ 50% | ≥ 1 µM | ≥ 1 µM | ≥ 1 µM |  |  |  | ≥ 1 µM |  | 0.1 to 1 µM | EC50 ([13]; 100 nM < EC50 < 1 μM): 0.1 to 1 µM
C#Cc1cccc(Nc2ncnc3cc(OCCOC)c(OCCOC)cc23)c1 [Erlotinib, reference compound] |  |  |  |  |  |  |  | ≥ 1 µM | ≥ 1 µM |  |  |  |  |  | ≥ 1 µM |  | 

The next lines start with results.

inhibition at 0.1 µM [1] | inhibition at 0.1 µM [2] | inhibition at 0.1 µM [3] | inhibition at 0.1 µM [4] | inhibition at 0.1 µM [5] | inhibition at 0.1 µM [6] | inhibition at 0.1 µM [7] | EC50 [8] | EC50 ([9]; EC50 ≧ 1 μM) | EC50 ([12]; EC50 ≧ 1 μM) | EC50 ([13]; EC50 ≧ 1 μM) | EC50 ([14]; 100 nM < EC50 < 1 μM) | EC50 ([15]; EC50 ≧ 1 μM) | SMILES | EC50 ([10]; EC50 ≧ 1 μM) | EC50 ([11]; EC50 ≧ 1 μM) | EC50 ([11]; 100 nM < EC50 < 1 μM) | other results
≥ 50% |  | < 50% | ≥ 50% | ≥ 50% | < 50% | ≥ 50% |  |  | ≥ 1 µM |  |  | ≥ 1 µM | COC(=O)c1cc2cc(C=Cc3cc(NC(=O)c4ccc(CN5CCC(N(C)C)C5)c(C(F)(F)F)c4)ccc3C)cnc2[nH]1 (stereo not shown) [OR0778, 5-(2-{5-[4-(3-Dimethylamino-pyrrolidin-1-ylmethyl)-3-trifluoromethyl-benzoylamino]-2-methyl-phenyl}-vinyl)-1H-pyrrolo[2,3-b]pyridine-2-carboxylic acid methyl ester] | ≥ 1 µM | ≥ 1 µM |  | EC50 ([14]; EC50 ≧ 1 μM): ≥ 1 µM; EC50 [16]: ≥ 1 µM
≥ 50% | < 50% | < 50% | ≥ 50% | ≥ 50% | ≥ 50% | ≥ 50% | ≥ 1 µM | ≥ 1 µM |  | ≥ 1 µM | 0.1 to 1 µM |  | COC(=O)c1cc2cc(C=Cc3cc(NC(=O)c4ccc(CN5CCN(C)CC5)c(C(F)(F)F)c4)ccc3C)cnc2[nH]1 [OR0777, 5-(-2-{2-Methyl-5-[4-(4-methyl-piperazin-1-ylmethyl)-3-trifluoromethyl-benzoylamino]-phenyl}-vinyl)-1H-pyrrolo[2,3-b]pyridine-2-carboxylic acid methyl ester] |  |  | 0.1 to 1 µM | EC50 ([10]; 100 nM < EC50 < 1 μM): 0.1 to 1 µM; EC50 ([12]; 100 nM < EC50 < 1 μM): 0.1 to 1 µM; EC50 ([15]; 100 nM < EC50 < 1 μM): 0.1 to 1 µM
≥ 50% |  | ≥ 50% | ≥ 50% | ≥ 50% | < 50% | < 50% |  |  | ≥ 1 µM |  |  | ≥ 1 µM | CC(=O)c1cc2cc(CCc3cc(NC(=O)c4cncc(C(F)(F)F)c4)ccc3C)cnc2[nH]1 [OR0800, N-{3-[2-(2-Acetyl-1H-pyrrolo[2,3-b]pyridin-5-yl)-ethyl]-4-methyl-phenyl}-5-trifluoromethyl-nicotinamide] | ≥ 1 µM |  | 0.1 to 1 µM | EC50 ([14]; EC50 ≧ 1 μM): ≥ 1 µM
≥ 50% |  | ≥ 50% | ≥ 50% | ≥ 50% | < 50% | ≥ 50% |  |  | ≥ 1 µM |  | 0.1 to 1 µM | ≥ 1 µM | CC(=O)c1cc2cc(CCc3cc(NC(=O)c4ccc(CN5CCN(C)CC5)cc4)ccc3C)cnc2[nH]1 [OR0799, N-{3-[2-(2-Acetyl-1H-pyrrolo[2,3-b]pyridin-5-yl)-ethyl]-4-methyl-phenyl}-4-(4-methyl-piperazin-1-ylmethyl)-benzamide] |  |  | 0.1 to 1 µM | EC50 ([10]; 100 nM < EC50 < 1 μM): 0.1 to 1 µM
